# In PubChem BioAssay (NCI):
# Several values for one entry are separate records, joined by “and”; a condition that tells them apart may be missing. Equal entries are not always repeated.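 All cell lines were grown in 96-well plates and treated with compound for 48 hours. GI50: concentration for 50% inhibition of growth. TGI: total growth inhibition.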
# Tests used:
# Test in all cases: NCI anticancer screen, dose series, 48 h
# [1] = tested on: NCI-H23 lung
# [2] = tested on: A549 NSCLC
# [3] = tested on: CAKI-1 renal
# [4] = tested on: A498 renal
# [5] = tested on: RPMI-8226 leukemia
# [6] = tested on: OVCAR-4 ovarian
# [7] = tested on: DMS 273 small cell lung
# [8] = tested on: IGROV1 ovarian
# [9] = tested on: SW-620 colon
# [10] = tested on: DMS 114 small cell lung
# [11] = tested on: SNB-19 CNS
# [12] = tested on: UO-31 renal
# [13] = tested on: SN12C renal
# [14] = tested on: CCRF-CEM leukemia
# [15] = tested on: XF 498 CNS
# [16] = tested on: COLO 205 colon
# [17] = tested on: UACC-257 melanoma
# [18] = tested on: TK-10 renal
# [19] = tested on: NCI-H226 lung
# [20] = tested on: SF-295 CNS
# [21] = tested on: RXF 393 renal
# [22] = tested on: HCT-15 colon
# [23] = tested on: ACHN renal
# [24] = tested on: UACC-62 melanoma
# [25] = tested on: U251 CNS
# [26] = tested on: MOLT-4 leukemia
# [27] = tested on: HOP-18 NSCLC
# [28] = tested on: M19-MEL melanoma
# [29] = tested on: SK-OV-3 ovarian
# [30] = tested on: NCI-H522 lung
# [31] = tested on: HT29 colon
# [32] = tested on: SF-268 CNS
# [33] = tested on: OVCAR-8 ovarian
# [34] = tested on: M14 melanoma
# [35] = tested on: SF-539 CNS
# [36] = tested on: SK-MEL-28 melanoma
# [37] = tested on: OVCAR-3 ovarian
# [38] = tested on: HCT-116 colon
# [39] = tested on: OVCAR-5 ovarian
# [40] = tested on: SR leukemia
# [41] = tested on: SK-MEL-5 melanoma
# [42] = tested on: SK-MEL-2 melanoma
# [43] = tested on: LOX IMVI melanoma
# [44] = tested on: MALME-3M melanoma
# [45] = tested on: SNB-78 CNS
# [46] = tested on: HOP-62 NSCLC
# [47] = tested on: DLD-1 colon
# [48] = tested on: 786-0 renal
# [49] = tested on: EKVX NSCLC
# [50] = tested on: NCI-H460 lung
# [51] = tested on: K-562 leukemia
# [52] = tested on: HL-60(TB) leukemia
# [53] = tested on: LXFL 529 NSCLC
# [54] = tested on: SNB-75 CNS
# [55] = tested on: HOP-92 NSCLC
# [56] = tested on: KM12 colon
# [57] = tested on: HCC-2998 colon
smiles,measurement,setting,value
CC(=O)OC(C)(C)/C=C/C(=O)[C@](C)(O)[C@H]1[C@H](O)C[C@@]2(C)[C@@H]3CC=C4[C@@H](C[C@H](O)C(=O)C4(C)C)[C@]3(CO)C(=O)C[C@]12C,GI50,[1],621 nM
same,TGI,[1],14700 nM
same,GI50,[2],273 nM
same,TGI,[2],22600 nM
same,TGI,[3],564 nM and 660 nM
same,GI50,[4],79.1 nM
same,TGI,[4],431 nM and 213 nM
same,GI50,[5],356 nM
same,TGI,[5],2280 nM
same,GI50,[6],295 nM
same,TGI,[6],835 nM
same,GI50,[7],324 nM
same,TGI,[7],771 nM
same,GI50,[8],463 nM
same,TGI,[8],907 nM and 2890 nM
same,GI50,[9],159 nM
same,TGI,[9],20000 nM
same,GI50,[10],248 nM
same,TGI,[10],15300 nM
same,GI50,[11],213 nM
same,TGI,[11],580 nM and 559 nM
same,GI50,[12],251 nM
same,TGI,[12],883 nM and 565 nM
same,GI50,[13],368 nM
same,TGI,[13],17400 nM
same,GI50,[14],95.9 nM
same,TGI,[14],960 nM and 2620 nM
same,GI50,[15],108 nM
same,TGI,[15],665 nM and 209 nM
same,GI50,[16],159 nM
same,GI50,[17],284 nM
same,TGI,[17],943 nM and 6360 nM
same,GI50,[18],251 nM
same,TGI,[18],318 nM and 512 nM
same,GI50,[19],290 nM
same,TGI,[19],776 nM and 293 nM
same,TGI,[20],772 nM and 1640 nM
same,TGI,[21],405 nM and 458 nM
same,GI50,[22],351 nM
same,TGI,[22],> 100000 nM
same,TGI,[23],882 nM and 844 nM
same,GI50,[24],127 nM
same,TGI,[24],15800 nM
same,GI50,[25],267 nM
same,TGI,[25],592 nM and 1520 nM
same,TGI,[26],58300 nM
same,GI50,[27],216 nM
same,TGI,[27],646 nM and 1320 nM
same,GI50,[28],298 nM
same,TGI,[28],29900 nM
same,GI50,[29],333 nM
same,GI50,[30],112 nM
same,TGI,[30],855 nM and 675 nM
same,GI50,[31],276 nM
same,GI50,[32],362 nM
same,TGI,[32],971 nM and 1290 nM
same,TGI,[33],23800 nM
same,GI50,[34],85.7 nM
same,TGI,[34],4120 nM
same,GI50,[35],173 nM
same,TGI,[35],658 nM and 472 nM
same,GI50,[36],34 nM
same,TGI,[36],697 nM and 254 nM
same,GI50,[37],273 nM
same,TGI,[37],762 nM
same,GI50,[38],236 nM
same,TGI,[38],10000 nM
same,GI50,[39],730 nM
same,TGI,[39],41000 nM
same,GI50,[40],462 nM
same,TGI,[40],29400 nM
same,GI50,[41],171 nM
same,TGI,[41],894 nM and 1330 nM
same,GI50,[42],33.9 nM
same,TGI,[42],416 nM and 104 nM
same,GI50,[43],99.9 nM
same,TGI,[43],492 nM and 455 nM
same,GI50,[44],83.8 nM
same,TGI,[44],936 nM and 4690 nM
same,GI50,[45],269 nM
same,TGI,[45],983 nM and 3920 nM
same,TGI,[46],528 nM and 482 nM
same,GI50,[47],216 nM
same,TGI,[47],15000 nM
same,GI50,[48],200 nM
same,TGI,[48],889 nM and 475 nM
same,GI50,[49],432 nM
same,TGI,[49],903 nM and 7310 nM
same,GI50,[50],407 nM
same,TGI,[50],17900 nM
same,GI50,[51],164 nM
same,TGI,[51],29500 nM
same,GI50,[52],300 nM
same,TGI,[52],922 nM and 1330 nM
same,GI50,[53],90 nM
same,TGI,[53],6620 nM
same,GI50,[54],52.9 nM
same,TGI,[54],375 nM and 211 nM
same,GI50,[55],282 nM
same,TGI,[55],435 nM and 454 nM
same,GI50,[56],703 nM
same,TGI,[56],32700 nM
same,TGI,[57],15100 nM
